{
  "source": "the Kinase Knowledgebase extract (Sharma et al. 2016)",
  "data": [
    {"molecular_target": "MAPK14 (human) (UniProt Q16539)", "sequence (Q16539 whole entry, looked up)": "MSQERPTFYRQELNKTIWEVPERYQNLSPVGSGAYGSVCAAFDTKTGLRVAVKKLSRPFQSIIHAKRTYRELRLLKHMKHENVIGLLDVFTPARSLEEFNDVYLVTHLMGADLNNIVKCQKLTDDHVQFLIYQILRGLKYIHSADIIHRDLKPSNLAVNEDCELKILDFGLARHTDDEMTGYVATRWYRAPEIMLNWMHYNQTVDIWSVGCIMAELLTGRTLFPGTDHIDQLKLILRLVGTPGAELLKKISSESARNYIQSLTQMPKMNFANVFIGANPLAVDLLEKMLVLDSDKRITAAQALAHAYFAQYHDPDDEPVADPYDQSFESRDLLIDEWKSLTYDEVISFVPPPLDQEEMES", "assay": "Inhibition of MAPK14 Kinase Activity", "units": {"IC50": "µM"}, "values": [
      {"smiles": "Cc1cccc(C)c1-n1c(=O)[nH]c2c(-c3ccccc3Cl)ncnc21", "IC50": 7.8},
      {"smiles": "O=c1[nH]c2c(-c3ccccc3Cl)ncnc2n1-c1ccc(F)cc1F", "IC50": 2.7},
      {"smiles": "O=c1[nH]c2c(-c3ccccc3Cl)ncnc2n1-c1c(F)cccc1F", "IC50": 0.9},
      {"smiles": "Cc1ccccc1-c1ncnc2c1[nH]c(=O)n2-c1ccc(F)cc1F", "IC50": 1.6},
      {"smiles": "O=c1[nH]c2c(-c3ccccc3)ncnc2n1-c1c(F)cccc1F", "IC50": 17.5},
      {"smiles": "Cc1ccccc1-c1ncnc2c1[nH]c(=O)n2-c1c(C)cccc1C", "IC50": 18.1},
      {"smiles": "Cc1ccccc1-c1ncnc2c1[nH]c(=O)n2-c1c(F)cccc1F", "IC50": 0.5},
      {"smiles": "Cc1ccccc1-c1ncnc2c1[nH]c(=S)n2-c1c(C)cccc1C", "IC50": 100},
      {"smiles": "O=c1[nH]c2c(-c3ccccc3F)ncnc2n1-c1c(F)cccc1F", "IC50": 7.8},
      {"smiles": "COc1ccc(-n2c(=O)[nH]c3c(-c4ccccc4C)ncnc32)c(OC)c1", "IC50": 5.2}
    ]}
  ]
}
